Source: patent US9113629B2, “4-amino-6-(4-substituted-phenyl)-picolinates and 6-amino-2-(4-substituted-phenyl)-pyrimidine-4-carboxylates and their use as herbicides” (DOW AGROSCIENCES LLC, priority 2013, dated 2015)
Like-named read-outs stand apart in the source and are kept apart here.

What was measured:
[1] = test system: Key Grass and Sedge Weeds as well as Grass Crops; test: Post-emergent Test II herbicidal activity (Table 6); type: in vivo; details: post-emergence, 336 h; for pest or weed control at 70 g/ha: 70 g ai/ha; for pest or weed control at 140 g/ha: 140 g ai/ha
How it was run: (§1)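 Scoring: visual, 0–100% injury at 14 d versus untreated. Treatment: overhead track spray, 187 L/ha, onto plants at the first–second true leaf stage. Growth: greenhouse, ~15 h light, 23–29 °C day, 22–28 °C night.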

[2] = test system: Key Broadleaf Weed and Crop Species; test: Post-emergent Test II herbicidal activity (Table 5); type: in vivo; details: post-emergence, 336 h, 14 days after application; for pest or weed control at 70 g/ha: application rate 70 g ai/ha; for pest or weed control at 140 g/ha: application rate 140 g ai/ha
How it was run: as §1

[3] = CYPES: yellow nutsedge (Cyperus esculentus), read-out: Visual Growth Reduction (%) 14 Days After Application, CYPES
[4] = DIGSA: crabgrass (Digitaria sanguinalis), read-out: Visual Growth Reduction (%) 14 Days After Application, DIGSA
[5] = ECHCG: barnyardgrass (Echinochloa crus-galli), read-out: Visual Growth Reduction (%) 14 Days After Application, ECHCG
[6] = ORYSA: rice (Oryza sativa), crop, read-out: Visual Growth Reduction (%) 14 Days After Application, ORYSA
[7] = SETFA: giant foxtail (Setaria faberi), read-out: Visual Growth Reduction (%) 14 Days After Application, SETFA
[8] = SORVU: grain sorghum (Sorghum vulgare), read-out: Visual Growth Reduction (%) 14 Days After Application, SORVU
[9] = TRZSS (wheat, Triticum aestivum), crop, read-out: Visual Growth Reduction (%) 14 Days After Application, TRZSS
[10] = ZEAMX: maize, corn (Zea mays), crop, read-out: Visual Growth Reduction (%) 14 Days After Application, ZEAMX
[11] = ABUTH: velvetleaf (Abutilon theophrasti), read-out: Visual Growth Reduction (%) 14 Days After Application, ABUTH
[12] = AMARE: redroot pigweed (Amaranthus retroflexus), read-out: Visual Growth Reduction (%) 14 Days After Application, AMARE
[13] = BRSNN: oilseed-rape, canola (Brassica napus), read-out: Visual Growth Reduction (%) 14 Days After Application, BRSNN
[14] = CHEAL: lambsquarters (Chenopodium album), read-out: Visual Growth Reduction (%) 14 Days After Application, CHEAL
[15] = EPHHL: wild poinsettia (Euphorbia heterophylla), read-out: Visual Growth Reduction (%) 14 Days After Application, EPHHL
[16] = HELAN: sunflower (Helianthus annuus), read-out: Visual Growth Reduction (%) 14 Days After Application, HELAN
[17] = VIOTR: wild pansy (Viola tricolor), read-out: Visual Growth Reduction (%) 14 Days After Application, VIOTR

## COC(=O)c1nc(-c2ccc(C(F)(F)F)c(F)c2F)c(F)c(N)c1Cl [Compound 149]
other
  melting point: 131 to 132 °C
[1]; [3]
  pest or weed control at 70 g/ha: 95 to 100%
  pest or weed control at 140 g/ha: 95 to 100%
[1]; [4]
  pest or weed control at 70 g/ha: 30 to 44%
  pest or weed control at 140 g/ha: 30 to 44%
[1]; [5]
  pest or weed control at 70 g/ha: 95 to 100%
  pest or weed control at 140 g/ha: 95 to 100%
[1]; [6]
  pest or weed control at 70 g/ha: 0 to 29%
  pest or weed control at 140 g/ha: 0 to 29%
[1]; [7]
  pest or weed control at 70 g/ha: 30 to 44%
  pest or weed control at 140 g/ha: 30 to 44%
[1]; [8]
  pest or weed control at 70 g/ha: 95 to 100%
  pest or weed control at 140 g/ha: 95 to 100%
[1]; [9]
  pest or weed control at 70 g/ha: 30 to 44%
  pest or weed control at 140 g/ha: 45 to 59%
[1]; [10]
  pest or weed control at 70 g/ha: 75 to 84%
  pest or weed control at 140 g/ha: 85 to 94%
[2]; [11]
  pest or weed control at 70 g/ha: 95 to 100%
  pest or weed control at 140 g/ha: 95 to 100%
[2]; [12]
  pest or weed control at 70 g/ha: 95 to 100%
  pest or weed control at 140 g/ha: 95 to 100%
[2]; [13]
  pest or weed control at 70 g/ha: 85 to 94%
  pest or weed control at 140 g/ha: 95 to 100%
[2]; [14]
  pest or weed control at 70 g/ha: 95 to 100%
  pest or weed control at 140 g/ha: 95 to 100%
[2]; [15]
  pest or weed control at 70 g/ha: 95 to 100%
  pest or weed control at 140 g/ha: 95 to 100%
[2]; [16]
  pest or weed control at 70 g/ha: 95 to 100%
  pest or weed control at 140 g/ha: 95 to 100%
[2]; [17]
  pest or weed control at 70 g/ha: 85 to 94%
  pest or weed control at 140 g/ha: 85 to 94%

## COC(=O)c1nc(-c2ccc(OC(F)F)c(F)c2)c(F)c(N)c1Cl [Compound 152]
other
  melting point: 112 to 114 °C
[1]; [3]
  pest or weed control at 70 g/ha: 60 to 74%
  pest or weed control at 140 g/ha: 95 to 100%
[1]; [4]
  pest or weed control at 70 g/ha: 45 to 59%
  pest or weed control at 140 g/ha: 75 to 84%
[1]; [5]
  pest or weed control at 140 g/ha: 85 to 94%
[1]; [6]
  pest or weed control at 70 g/ha: 0 to 29%
  pest or weed control at 140 g/ha: 0 to 29%
[1]; [7]
  pest or weed control at 70 g/ha: 0 to 29%
  pest or weed control at 140 g/ha: 45 to 59%
[1]; [8]
  pest or weed control at 70 g/ha: 45 to 59%
  pest or weed control at 140 g/ha: 45 to 59%
[1]; [9]
  pest or weed control at 70 g/ha: 0 to 29%
  pest or weed control at 140 g/ha: 0 to 29%
[1]; [10]
  pest or weed control at 70 g/ha: 95 to 100%
  pest or weed control at 140 g/ha: 95 to 100%
[2]; [11]
  pest or weed control at 70 g/ha: 85 to 94%
  pest or weed control at 140 g/ha: 85 to 94%
[2]; [12]
  pest or weed control at 70 g/ha: 85 to 94%
  pest or weed control at 140 g/ha: 85 to 94%
[2]; [13]
  pest or weed control at 70 g/ha: 85 to 94%
  pest or weed control at 140 g/ha: 85 to 94%
[2]; [14]
  pest or weed control at 70 g/ha: 85 to 94%
  pest or weed control at 140 g/ha: 85 to 94%
[2]; [15]
  pest or weed control at 70 g/ha: 95 to 100%
  pest or weed control at 140 g/ha: 95 to 100%
[2]; [16]
  pest or weed control at 70 g/ha: 75 to 84%
  pest or weed control at 140 g/ha: 85 to 94%
[2]; [17]
  pest or weed control at 70 g/ha: 0 to 29%
  pest or weed control at 140 g/ha: 0 to 29%
